Experimental data from US20140037625A1, “BIOMARKERS AND METHODS OF TREATMENT” (GENENTECH, INC., priority 2010, published 2014).
Like-named read-outs stand apart in the source and are kept apart here.

How the values were obtained:
NSCLC patients = conditions: cited from earlier work
[1] = test system: patients with advanced NSCLC; test: Exploratory biomarker analyses from OAM4558g (MET FISH, mRNA by qRT-PCR) with outcome; format: in vivo, human
Method: MET and EGFR gene copy numbers were evaluated by fluorescent in situ hybridization (FISH). […] True MET amplification was defined as tight gene cluster of greater than or equal to 15 copies of MET in greater than or equal to 10% of tumor cells or a MET/CEP7 ratio of greater than or equal to 2.
MET, HGF, EGFR, AREG, and EREG mRNA expression was evaluated on RNA extracted from macro-dissected tumor tissue slides using the Fluidigm platform. Transcript levels were normalized to the mean of two reference genes that are stably expressed in lung tissue and results are expressed as normalized expression values (2^−ΔCt).
Exploratory tumor biomarkers related to c-Met and/or EGFR signaling were measured by FISH, qRT-PCR or various mutation detection techniques from archival tumor tissue specimens. Plasma HGF levels were measured by ELISA. Analyses with outcome were carried out independent of Met clinical diagnostic status.

[2] = test system: patients with second and third-line NSCLC; test: Phase II trial of MetMAb plus erlotinib versus erlotinib plus placebo: safety, disposition and exposure
Description: (§1) This study was a Phase II, double-blind, randomized, multicenter trial designed to evaluate the preliminary activity and safety of treatment with MetMAb plus Erlotinib versus Erlotinib plus placebo in second and third-line NSCLC. […] Once 120 patients, comprising the “overall” population were enrolled, eligibility was restricted to patients with squamous cell carcinoma (SCC) histology to ensure that a total of approximately 80 patients with SCC are enrolled in the study. Randomization for the first 120 patients comprising the “overall” population was stratified by smoking status (non-smokers and smokers who have quit more than 10 years ago versus current smokers and smokers who have quit less than 10 years ago), performance status and histology, and randomization for the next 50 SCC patients will be stratified by smoking status and performance status. Treatment in each arm was continued until progression of disease, unacceptable toxicity, or any other discontinuation criterion was met. Upon disease progression, patients randomized to the Erlotinib plus placebo arm were given the option to receive MetMAb (in addition to continuing Erlotinib), provided they continue to meet eligibility criteria. Safety data collected from this cross-over was summarized for hypothesis generating purposes.
(§2) Primary and secondary efficacy analyses included all randomized patients, with patients allocated to the treatment arm to which they were randomized. Safety analyses included all randomized patients who received at least one dose of study treatment, with patients allocated to the treatment arm associated with the regimen actually received. Demographic and baseline characteristics (e.g. age and sex) were summarized using means, standard deviations, medians, and ranges for continuous variables and proportions for categorical variables, as appropriate. Summaries were presented by overall patient population and by treatment arm. The baselines value of any variable were defined as the last available value prior to the first administration of study treatment.
(§3) The dose of MetMAb was 15 mg/kg intravenously on Day 1 of a 3-week cycle. The weight at screening was used to determine the actual dose of MetMAb. The dose of erlotinib was 150 mg by mouth each day of a 3-week cycle. Dosage level for erlotinib may have been reduced to 100 mg (first reduction) or 50 mg (second reduction) for toxicity likely attributable to erlotinib (e.g., rash, diarrhea).

[3] = test system: patients with second and third-line NSCLC; conditions: for Difference in ORR, % (95% CI): Erlotinib + MetMAb vs Erlotinib + Placebo
Description: The original protocol for this study was described, e.g., in WO2010/045345; however, the study was later modified to add enrollment of 50 patients with squamous cell histology as follows. […] During this study, patients and treating individuals, including the investigators, were blinded to the treatment assignment of study drug (MetMAb or placebo).
During the study, data on tumor measurement and survival status were collected for evaluation of PFS, overall survival (OS) and overall response rate (ORR). CT scans were obtained at baseline and for the first four cycles at an approximately every 6 week intervals (i.e., every two three-week cycles of MetMAb/placebo). After four cycles, routine CT scans were performed approximately every 9 weeks (every 3 cycles of MetMAb/placebo). FDG-PET imaging is obtained at baseline and at Day 10-14 of Cycle 1. During the course of this study, an Image Reading facility (IRF) evaluated FDG-PET results and determined whether FDG-PET imaging should continue in all participating sites or whether FDG-PET imaging should be confined to a few sites based on data received.
The primary outcome measure of this study was progression free survival (PFS) defined by the Response Evaluation Criteria In Solid Tumors (RECIST)) 1.0 or death from any cause within thirty days of the last treatment.
(a) overall response (OR) (partial response plus complete response) as determined using RECIST 1.0 in Met positive tumors and overall; and
(c) Overall survival (time from randomization until death from any cause within 30 days of the last study treatment).
Kaplan-Meier methodology was used to estimate the median PFS for each treatment arm. The stratification factors were determined by the […] (CRF) data, not by data collected by the interactive voice […] system at the time of randomization unless the CRF data was missing. Estimation of the hazard ration (i.e., the magnitude of the treatment effect and the 95% confidence interval) was determined using a stratified Cox regression model with an indicator variable for MetMAb treatment. The same analysis methods as those described for PFS in “overall” population patients were applied to patients with met positive tumors and to patients with SCC histology. All deaths from any cause within 30 days of the last treatment were included as PFS events. Objective response was defined as a complete or partial response determined on two consecutive occasions greater than or equal to four weeks apart. Patients without a post-baseline tumor assessment were considered non-responders. An estimate of the objective response rate and 95% confidence interval (Blyth-Still-Casella) was calculated for each treatment arm. Confidence intervals for the difference in tumor response rate (Satnes and Snell 1980; Berger and Boos 1994) were calculated. For patients with an objective response, duration of objective response was defined as the time from the initial response to disease progression or death from any cause within 30 days of the last treatment. Methods for handling censoring and for analysis were the same as described for PFS. All secondary efficacy endpoints were assessed for patients with met positive tumors, patients with SCC histology and by “overall” patient population.

[4] = test system: patients with second and third-line NSCLC; conditions: in vivo
Description: as §1, §2, §3

[5] = Met Diagnostic-Negative, data cut-off Nov. 15, 2010
[6] = Met Diagnostic-Positive, data cut-off Nov. 15, 2010
[7] = Met High, data cut-off Jun. 8, 2010
[8] = Met Low, data cut-off Jun. 8, 2010
[9] = all patients, data cut-off Jun. 8, 2010
[10] = Met diagnostic negative patients, MetMAb+erlotinib vs erlotinib and placebo, data cut-off Nov. 15, 2010
[11] = Met diagnostic positive patients, MetMAb plus erlotinib vs placebo+erlotinib, data cut-off Nov. 15, 2010
[12] = Met diagnostic positive patients, data cut-off Nov. 15, 2010
[13] = Met high patients, MetMAb plus erlotinib vs placebo plus erlotinib, data cut-off Jun. 8, 2010
[14] = Met high patients, data cut-off Jun. 8, 2010
[15] = Met low patients, ME vs erlotinib and placebo, data cut-off Jun. 8, 2010
[16] = Overall, data cut-off Jun. 8, 2010
[17] = overall (ITT) population, MetMAb plus erlotinib vs placebo plus erlotinib, data cut-off Jun. 8, 2010
[18] = overall (ITT) population, MetMAb plus erlotinib vs placebo plus erlotinib, data cut-off Nov. 15, 2010

## Nc1nc2[nH]cc(CCc3ccc(C(=O)N[C@@H](CCC(=O)O)C(=O)O)cc3)c2c(=O)[nH]1 [Pemtrexed]
NSCLC patients; NSCLC SCC, Scagliotti et al, 2008
  efficacy in SCC: relatively lower efficacy
NSCLC patients; NSCLC adenocarcinoma, Scagliotti et al, 2008
  activity in adenocarcinoma: active

## Erlotinib + MetMAb: MetMAb (15 mg/kg IV q3wks) plus erlotinib treatment, interchangeably termed ME
[1]; AREG mRNA High, MetMAb + Erlotinib vs Placebo + Erlotinib
  outcome HR: 0.77
[1]; AREG mRNA Low (median 7.11)
  outcome Median (mo): 6.5 mo
[1]; AREG mRNA Low, MetMAb + Erlotinib vs Placebo + Erlotinib
  outcome HR: 1.31
[1]; EGFR mRNA High (median 7.75)
  outcome Median (mo): 7.1 mo
[1]; EGFR mRNA High, MetMAb + Erlotinib vs Placebo + Erlotinib
  outcome HR: 1.1
[1]; EGFR mRNA Low (median 7.75)
  outcome Median (mo): 11.7 mo
[1]; EGFR mRNA Low, MetMAb + Erlotinib vs Placebo + Erlotinib
  outcome HR: 0.88
[1]; EREG mRNA High (median 0.26)
  outcome Median (mo): 10.2 mo
[1]; EREG mRNA High, MetMAb + Erlotinib vs Placebo + Erlotinib
  outcome HR: 0.67
[1]; EREG mRNA Low (median 0.26)
  outcome Median (mo): 8.1 mo
[1]; EREG mRNA Low, MetMAb + Erlotinib vs Placebo + Erlotinib
  outcome HR: 1.34
[1]; MET mRNA High (median 3.16)
  outcome Median (mo): 8.7 mo
[1]; MET mRNA High, MetMAb + Erlotinib vs Placebo + Erlotinib
  outcome HR: 0.59
[1]; MET mRNA Low (median 3.16)
  outcome Median (mo): 11.7 mo
[1]; MET mRNA Low, MetMAb + Erlotinib vs Placebo + Erlotinib
  outcome HR: 1.48
[2]; Met Diagnostic Negative, data cut-off Nov. 15, 2010
  Summary of safety data: Adverse events leading to death: 3 (9.7) No. of patients (%)
[2]; Met Diagnostic Positive, data cut-off Nov. 15, 2010
  Summary of safety data: Adverse events leading to death: 1 (2.9) No. of patients (%)
[2]; [5]
  Patient disposition: Death: 2 (6.5) No. of patients (%)
  Patient disposition: Disease progression: 22 (71.0) No. of patients (%)
[2]; [6]
  Patient disposition: Death: 0 No. of patients (%)
  Patient disposition: Disease progression: 18 (51.4) No. of patients (%)
[2]; [7]
  Summary of safety: AEs leading to death: 1 (2.9) n (%)
[2]; [8]
  All adverse events: Dyspnea: 4 (14.8) n (%)
  Summary of safety: AEs leading to death: 4 (14.8) n (%)
[2]; Met low, data cut-off Jun. 8, 2010
  Grade 3-5 adverse events: Pneumonia: 4 (14.8) n (%)
[2]; [9]
  Patient disposition: Deaths: 2 (3.1) n (%)
  Patient disposition: Disease progression: 34 (53.1) n (%)
[3]; 10% Met diagnostic positive and not Met diagnostic positive using the 50% cutoff
  overall survival treatment effect HR (unstratified Cox model): 2.83
[3]; 10% Met diagnostic positive patients (>=10% tumor cells IHC 2+ or 3+)
  overall survival treatment effect HR (unstratified Cox model): 0.52
[3]; 90% Met diagnostic positive patients
  overall survival treatment effect HR (unstratified Cox model): 0.30
[3]; [7]
  Difference in ORR, % (95% CI): 5.2 (−6.0-16.5) %
  # pts PD by RECIST: n = 17
  No. of patients with OR (%): 3 (8.6) No. of patients (%)
  Pattern of progression: PD by new lesions: 9 (52.9)
  Pattern of progression: PD on target lesions: 11 (64.7)
[3]; Met IHC status 0 and 1 patients, data cut-off Jun. 8, 2010
  PFS benefit by subgroup: did not benefit
[3]; Met IHC status 3 and 2 patients, data cut-off Jun. 8, 2010
  PFS benefit by subgroup: showed benefit
[3]; [8]
  # pts PD by RECIST: n = 15
  Pattern of progression: PD by new lesions: 7 (46.7)
  Pattern of progression: PD on target lesions: 11 (73.3)
[3]; Met diagnostic negative IHC status 0 and 1 patients, data cut-off Nov. 15, 2010
  OS benefit by subgroup: did not benefit
[3]; [10]
  OS HR: 1.78
  PFS HR: 1.82
[3]; Met diagnostic positive IHC status 3 and 2 patients, data cut-off Nov. 15, 2010
  OS benefit by subgroup: showed benefit
[3]; [11]
  OS Hazard ratio (HR): 0.37
  PFS Hazard ratio (HR): 0.53
[3]; [12]
  median OS: 12.6 months
  median PFS: 2.9 months
[3]; Met diagnostic positive using 50% cutoff
  overall survival treatment effect HR (unstratified Cox model): 0.38
[3]; Met diagnostic positive using 50% cutoff and not 90% Met diagnostic positive
  overall survival treatment effect HR (unstratified Cox model): 0.75
[3]; Met high IHC status 3 and 2 patients, data cut-off Jun. 8, 2010
  OS benefit by subgroup: showed benefit
[3]; [13]
  OS Hazard ratio (HR): 0.55
  PFS Hazard ratio (HR): 0.56
[3]; [14]
  median OS: 7.7 weeks
  median PFS: 12.4 weeks
[3]; Met high population excluding patients with known EGFR mutations, relative to placebo+erlotinib, data cut-off Jun. 8, 2010
  OS HR: 0.55
[3]; Met low IHC status 0 and 1 patients, data cut-off Jun. 8, 2010
  OS benefit by subgroup: did not benefit
[3]; [15]
  OS HR: 3.26
  PFS HR: 2.01
[3]; Met low patients, data cut-off Jun. 8, 2010
  patients progressed by the first assessment (CAT scan at week 6): ~70%
[3]; Met low patients, data cut-off Nov. 15, 2010
  patients progressed by the first assessment (CAT scan at week 6): ~70%
[3]; [16]
  Difference in ORR, % (95% CI): 1.6 (−6.3-9.4) %
  No. of patients with OR (%): 4 (6.3) No. of patients (%)
[3]; [17]
  OS HR: 1.09
  PFS HR: 1.09
[3]; [18]
  OS Hazard ratio: 0.8
  PFS Hazard ratio: 1.09
[3]; overall population, data cut-off Jun. 8, 2010
  Objective response rate: 6.3%
[4]
  All adverse events: Dyspnea: 7 (20.0) n (%)
  Grade 3-5 adverse events: Pneumonia: 1 (2.9) n (%)
  Patient disposition: Adverse events: 7 (10.9) n (%)
  Safety: tolerability: well-tolerated

## MetMAb: known recombinant, humanized, monovalent monoclonal antibody directed against c-met
[1]; EGFR-wildtype patients that were Met diagnostic positive and MET FISH negative
  OS HR: 0.45
[1]; EGFR-wildtype patients, MET FISH positive at lower threshold ≧4 copies
  outcome HR: 0.89
[2]; both Met diagnostic positive and diagnostic negative populations, data cut-off Nov. 15, 2010
  frequency of peripheral edema in MetMAb treated arms: higher

## bevacizumab: anti-VEGF antibody
NSCLC patients; in vivo
  bleeding risk: increased bleeding risk
